{"source": "the supplement of paper PMC10307832", "assay_in_all_cases": "relative viability (nuclei count vs DMSO), 5 days (fraction); higher = more cells survive", "key": {"[1]": {"compound": "C1CN(CCN1)C2=CC=C(C=C2)C3=CN4C(=C(C=N4)C5=CC=NC6=CC=CC=C56)N=C3 [DM3189] + CC(C)C[C@H](NC(=O)[C@H](Cc1ccccc1)NC(=O)c1cnccn1)B(O)O [Bortezomib] (partner 0.002 µM)", "method_in_brief": "(§1)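 Relative viability equals treated-well nuclei counts divided by vehicle-well nuclei counts. Counts came from 4× images of lung cancer cell lines grown in 1536-well plates for 5 days after pin-tool dosing on the day after seeding. Dosing used one drug alone or a fixed anchor-drug dose plus five library-drug doses (not always all listed) in √10 steps, and values are medians of duplicate plates.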"}, "[2]": {"compound": "C1CN(CCN1)C2=CC=C(C=C2)C3=CN4C(=C(C=N4)C5=CC=NC6=CC=CC=C56)N=C3 [DM3189] + CCNC(=O)c1noc(-c2cc(C(C)C)c(O)cc2O)c1-c1ccc(CN2CCOCC2)cc1 [Luminespib] (partner 0.01 µM)", "method_in_brief": "as §1"}, "[3]": {"compound": "C1CN(CCN1)C2=CC=C(C=C2)C3=CN4C(=C(C=N4)C5=CC=NC6=CC=CC=C56)N=C3 [DM3189] + COc1cc2c(Oc3ccc(NC(=O)C4(C(=O)Nc5ccc(F)cc5)CC4)cc3F)ccnc2cc1OCCCN1CCOCC1 [Foretinib] (partner 0.25 µM)", "method_in_brief": "as §1"}, "[4]": {"compound": "C1CN(CCN1)C2=CC=C(C=C2)C3=CN4C(=C(C=N4)C5=CC=NC6=CC=CC=C56)N=C3 [DM3189] + Cc1cc(Nc2cc(N3CCN(C)CC3)nc(Sc3ccc(NC(=O)C4CC4)cc3)n2)n[nH]1 [Tozasertib] (partner 0.1 µM)", "method_in_brief": "as §1"}, "[5]": {"compound": "C1CN(CCN1)C2=CC=C(C=C2)C3=CN4C(=C(C=N4)C5=CC=NC6=CC=CC=C56)N=C3 [DM3189] + O=C(CCCCCCC(=O)Nc1ccccc1)NO [Vorinostat] (partner 1 µM)", "method_in_brief": "as §1"}}}
{"cell line": "201T", "values": [{"measurement": "relative viability", "setting": "[1]; first compound 0.08 µM", "result": 1.15}, {"measurement": "relative viability", "setting": "[1]; first compound 0.253 µM", "result": 1.07}, {"measurement": "relative viability", "setting": "[1]; first compound 0.8 µM", "result": 1.05}, {"measurement": "relative viability", "setting": "[1]; first compound 2.53 µM", "result": 1.09}, {"measurement": "relative viability", "setting": "[2]; first compound 0.08 µM", "result": 1.16}, {"measurement": "relative viability", "setting": "[2]; first compound 0.253 µM", "result": 1.01}, {"measurement": "relative viability", "setting": "[2]; first compound 0.8 µM", "result": 1.14}, {"measurement": "relative viability", "setting": "[2]; first compound 2.53 µM", "result": 0.941}, {"measurement": "relative viability", "setting": "[3]; first compound 0.08 µM", "result": 1.01}, {"measurement": "relative viability", "setting": "[3]; first compound 0.253 µM", "result": 1.03}, {"measurement": "relative viability", "setting": "[3]; first compound 0.8 µM", "result": 0.73}, {"measurement": "relative viability", "setting": "[3]; first compound 2.53 µM", "result": 1.27}, {"measurement": "relative viability", "setting": "[4]; first compound 0.08 µM", "result": 0.998}, {"measurement": "relative viability", "setting": "[4]; first compound 0.253 µM", "result": 0.913}, {"measurement": "relative viability", "setting": "[4]; first compound 0.8 µM", "result": 1.02}, {"measurement": "relative viability", "setting": "[4]; first compound 2.53 µM", "result": 0.781}, {"measurement": "relative viability", "setting": "[5]; first compound 0.08 µM", "result": 1.03}, {"measurement": "relative viability", "setting": "[5]; first compound 0.253 µM", "result": 0.899}, {"measurement": "relative viability", "setting": "[5]; first compound 0.8 µM", "result": 0.943}, {"measurement": "relative viability", "setting": "[5]; first compound 2.53 µM", "result": 1.12}]}
{"cell line": "A-427", "values": [{"measurement": "relative viability", "setting": "[1]; first compound 0.08 µM", "result": 1.12}, {"measurement": "relative viability", "setting": "[1]; first compound 0.253 µM", "result": 0.962}, {"measurement": "relative viability", "setting": "[1]; first compound 0.8 µM", "result": 0.876}, {"measurement": "relative viability", "setting": "[1]; first compound 2.53 µM", "result": 0.97}, {"measurement": "relative viability", "setting": "[2]; first compound 0.08 µM", "result": 1.13}, {"measurement": "relative viability", "setting": "[2]; first compound 0.253 µM", "result": 0.89}, {"measurement": "relative viability", "setting": "[2]; first compound 0.8 µM", "result": 0.806}, {"measurement": "relative viability", "setting": "[2]; first compound 2.53 µM", "result": 0.745}, {"measurement": "relative viability", "setting": "[3]; first compound 0.08 µM", "result": 1.09}, {"measurement": "relative viability", "setting": "[3]; first compound 0.253 µM", "result": 1.23}, {"measurement": "relative viability", "setting": "[3]; first compound 0.8 µM", "result": 1.04}, {"measurement": "relative viability", "setting": "[3]; first compound 2.53 µM", "result": 1.22}, {"measurement": "relative viability", "setting": "[4]; first compound 0.08 µM", "result": 0.191}, {"measurement": "relative viability", "setting": "[4]; first compound 0.253 µM", "result": 0.212}, {"measurement": "relative viability", "setting": "[4]; first compound 0.8 µM", "result": 0.204}, {"measurement": "relative viability", "setting": "[4]; first compound 2.53 µM", "result": 0.216}, {"measurement": "relative viability", "setting": "[5]; first compound 0.08 µM", "result": 0.941}, {"measurement": "relative viability", "setting": "[5]; first compound 0.253 µM", "result": 0.791}, {"measurement": "relative viability", "setting": "[5]; first compound 0.8 µM", "result": 0.801}, {"measurement": "relative viability", "setting": "[5]; first compound 2.53 µM", "result": 0.816}]}
{"cell line": "ABC-1", "values": [{"measurement": "relative viability", "setting": "[1]; first compound 0.08 µM", "result": 0.364}, {"measurement": "relative viability", "setting": "[1]; first compound 0.253 µM", "result": 0.272}, {"measurement": "relative viability", "setting": "[1]; first compound 0.8 µM", "result": 0.244}, {"measurement": "relative viability", "setting": "[1]; first compound 2.53 µM", "result": 0.23}, {"measurement": "relative viability", "setting": "[2]; first compound 0.08 µM", "result": 0.516}, {"measurement": "relative viability", "setting": "[2]; first compound 0.253 µM", "result": 0.489}, {"measurement": "relative viability", "setting": "[2]; first compound 0.8 µM", "result": 0.531}, {"measurement": "relative viability", "setting": "[2]; first compound 2.53 µM", "result": 0.278}, {"measurement": "relative viability", "setting": "[3]; first compound 0.08 µM", "result": 1.14}, {"measurement": "relative viability", "setting": "[3]; first compound 0.253 µM", "result": 1.18}, {"measurement": "relative viability", "setting": "[3]; first compound 0.8 µM", "result": 1.08}, {"measurement": "relative viability", "setting": "[3]; first compound 2.53 µM", "result": 0.906}, {"measurement": "relative viability", "setting": "[4]; first compound 0.08 µM", "result": 0.192}, {"measurement": "relative viability", "setting": "[4]; first compound 0.253 µM", "result": 0.134}, {"measurement": "relative viability", "setting": "[4]; first compound 0.8 µM", "result": 0.165}, {"measurement": "relative viability", "setting": "[4]; first compound 2.53 µM", "result": 0.175}, {"measurement": "relative viability", "setting": "[5]; first compound 0.08 µM", "result": 1.53}, {"measurement": "relative viability", "setting": "[5]; first compound 0.253 µM", "result": 0.9}, {"measurement": "relative viability", "setting": "[5]; first compound 0.8 µM", "result": 1.04}, {"measurement": "relative viability", "setting": "[5]; first compound 2.53 µM", "result": 0.907}]}
{"cell line": "BEN", "values": [{"measurement": "relative viability", "setting": "[1]; first compound 0.08 µM", "result": 0.926}, {"measurement": "relative viability", "setting": "[1]; first compound 0.253 µM", "result": 0.781}, {"measurement": "relative viability", "setting": "[1]; first compound 0.8 µM", "result": 0.686}, {"measurement": "relative viability", "setting": "[1]; first compound 2.53 µM", "result": 0.771}, {"measurement": "relative viability", "setting": "[2]; first compound 0.08 µM", "result": 0.387}, {"measurement": "relative viability", "setting": "[2]; first compound 0.253 µM", "result": 0.555}, {"measurement": "relative viability", "setting": "[2]; first compound 0.8 µM", "result": 0.516}, {"measurement": "relative viability", "setting": "[2]; first compound 2.53 µM", "result": 0.382}, {"measurement": "relative viability", "setting": "[3]; first compound 0.08 µM", "result": 0.79}, {"measurement": "relative viability", "setting": "[3]; first compound 0.253 µM", "result": 0.582}, {"measurement": "relative viability", "setting": "[3]; first compound 0.8 µM", "result": 0.533}, {"measurement": "relative viability", "setting": "[3]; first compound 2.53 µM", "result": 0.734}, {"measurement": "relative viability", "setting": "[4]; first compound 0.08 µM", "result": 0.416}, {"measurement": "relative viability", "setting": "[4]; first compound 0.253 µM", "result": 0.465}, {"measurement": "relative viability", "setting": "[4]; first compound 0.8 µM", "result": 0.483}, {"measurement": "relative viability", "setting": "[4]; first compound 2.53 µM", "result": 0.444}, {"measurement": "relative viability", "setting": "[5]; first compound 0.08 µM", "result": 0.609}, {"measurement": "relative viability", "setting": "[5]; first compound 0.253 µM", "result": 0.547}, {"measurement": "relative viability", "setting": "[5]; first compound 0.8 µM", "result": 0.541}, {"measurement": "relative viability", "setting": "[5]; first compound 2.53 µM", "result": 0.636}]}
